Results: patent US10266544B2, “Aryl substituted aminomethyl spectinomycin analogs as antibacterial agents” (ST. JUDE CHILDREN'S RESEARCH HOSPITAL, INC., priority 2013, dated 2019)
≈ marks a conversion by molar mass, not a printed value. Where a name gives a salt, the structure may show the parent alone. Read-outs that look alike come from different tables or passages of the source.

How the values were obtained:
Assay type in all cases: cell-based
E. coli K12 ΔtolC = experiment: microbe, parasite or virus in culture; details: Escherichia coli, read-out: MIC E.c. Δtolc
[1] = system: MRSA, Staphylococcus aureus (NRS70); experiment: MIC determination, microbroth dilution; details: read-out: MIC MRSA
[2] = system: Haemophilus influenza (ATCC 49247); experiment: microbe, parasite or virus in culture; details: ATCC49247; Haemophilus influenza; 4 μg per disc; range of at least two experiments; read-out: Zone of inhibition H.i.
Moraxella catarrhalis = experiment: MIC determination (Table 6)
[3] = system: Staphylococcus aureus (ATCC 29213); experiment: MIC determination, microbroth dilution; details: ATCC29213; Staphylococcus aureus (ATCC 29213); read-out: MIC S.a.
[4] = system: Legionella pneumophila (ATCC 33153); experiment: microbe, parasite or virus in culture; details: ATCC33153, 72 h, read-out: Zone of inhibition L.p.
[5] = system: Neisseria meningitides (ATCC 13077); experiment: Disc diffusion assay; details: ATCC13077, 4 μg per disc, read-out: Zone of inhibition N.m.
Bacillus anthracis = experiment: microbe, parasite or virus in culture; details: read-out: MIC B.a.
[6] = system: Stenotrophomonas maltophilia (ATCC 13637); experiment: MIC determination, microbroth dilution
[7] = system: Escherichia coli (ATCC 700926); experiment: MIC determination, microbroth dilution
[8] = system: M. tuberculosis clinical isolates; experiment: microbe, parasite or virus in culture; details: Mycobacterium tuberculosis
[9] = system: Proteus vulgaris (ATCC 33420); experiment: MIC determination, microbroth dilution; details: ATCC33420
[10] = system: Streptococcus pneumoniae (R6); experiment: MIC determination, microbroth dilution; details: read-out: MIC S. pn.
[11] = system: Proteus mirabilis (ATCC 25933); experiment: MIC determination, microbroth dilution; details: ATCC25933
[12] = system: Streptococcus pyogenes (ATCC 700294); experiment: MIC determination, microbroth dilution
[13] = system: Burkholderia cepacia (ATCC 25416); experiment: MIC determination, microbroth dilution; details: Burkholderia cepacia
[14] = system: Bacillus anthracis, Sterne 34F2; experiment: microbe, parasite or virus in culture; details: STERNE34F2, read-out: MIC B.a.
[15] = system: Bacillus subtilis (ATCC 23857); experiment: MIC determination, microbroth dilution
[16] = system: acinetobacter baumannii (ATCC 19606); experiment: MIC determination, microbroth dilution; details: ATCC19606
Listeria monocytogenes = experiment: MIC determination (Table 6)
[17] = system: Klebsiella pneumoniae (ATCC 33495); experiment: MIC determination, microbroth dilution; details: ATCC33495
[18] = system: Neisseria gonorrhoeae (ATCC 49226); experiment: Disc diffusion assay; details: ATCC49226, 4 μg per disc, read-out: Zone of inhibition N.g.
[19] = system: Pseudomonas aeruginosa (PA01); experiment: MIC determination, microbroth dilution
[20] = ATCC13637, Stenotrophomonas maltophilia (ATCC 13637), read-out: MIC S.m.
[21] = ATCC700294, Streptococcus pyogenes (ATCC 700294), read-out: MIC S. py.
[22] = ATCC25416, read-out: MIC B.c., Burkholderia cepacia (ATCC 25416)
[23] = ATCC25416, read-out: MIC B.c., Burkholderia cepacia, Table 6
[24] = Bacillus subtilis, ATCC23857, read-out: MIC B.s.
[25] = ATCC700926, Escherichia coli (ATCC 700926), read-out: MIC E.c.
[26] = Streptococcus pyogenes, ATCC700294, read-out: MIC S. py.
[27] = ATCC23857, Bacillus subtilis (ATCC 23857), read-out: MIC B.s.

SMILES	MIC (E. coli K12 ΔtolC)	MIC ([1]; Staphylococcus aureus (NRS70))	zone of inhibition at 4 µg/disc [2]	MIC (Moraxella catarrhalis)	MIC [3]	zone of inhibition at 4 µg/disc [4]	zone of inhibition at 4 µg/disc [5]	MIC (Bacillus anthracis)	MIC ([8]; H37RV, read-out: MIC H37Rv)	MIC ([8]; read-out: MIC TN022)	MIC ([8]; read-out: MIC TN026)	MIC [9]	MIC [11]	MIC [13, 22]	MIC [13, 23]	MIC [14]	MIC [16]	MIC (Listeria monocytogenes)	MIC [17]	MIC [19]	further results
CN[C@@H]1[C@H](O)[C@H](NC)[C@H]2O[C@]3(O)[C@H](O[C@@H]2[C@H]1O)O[C@H](C)C[C@@]3(O)CNCCc1ccc(OC(F)(F)F)cc1 [compound 57, 3′-(R)-3′-[(4-trifluoromethoxy)phenethylaminomethyl]dihydrospectinomycin Trihydrochloride]	1.3 to 3.1 µg/mL	50 to 100 µg/mL	12 mm	0.8 µg/mL	25 µg/mL	22 mm	15 mm	25 µg/mL	12.5 µg/mL	6.3 µg/mL	25 µg/mL	200 µg/mL	200 µg/mL	≥ 200 µg/mL	≥ 200 µg/mL	25 µg/mL	≥ 200 µg/mL	6.3 µg/mL	> 200 µg/mL	> 200 µg/mL	MIC [6, 20]: 50 to 100 µg/mL; MIC ([7]; Escherichia coli, ATCC700926, read-out: MIC E.c.): 25 µg/mL; MIC ([10]; Streptococcus pneumoniae (R6)): 3.1 µg/mL; MIC [12, 21]: 3.1 to 6.3 µg/mL; MIC [15, 24]: 12.5 µg/mL; zone of inhibition at 4 µg/disc [18]: 14 mm
CN[C@@H]1[C@H](O)[C@H](NC)[C@H]2O[C@]3(O)[C@H](O[C@@H]2[C@H]1O)O[C@H](C)C[C@@]3(O)CNCCc1ccc(C)c(C)c1 [compound 55, 3′-(R)-3′-[(3,4-dimethyl)phenethylaminomethyl]dihydrospectinomycin Trihydrochloride]	12.5 to 25 µg/mL	> 200 µg/mL	9 mm	3.1 µg/mL	100 µg/mL	15 mm	8 mm	100 µg/mL	25 µg/mL	50 µg/mL	50 µg/mL	> 200 µg/mL	> 200 µg/mL	> 200 µg/mL	> 200 µg/mL	100 µg/mL	> 200 µg/mL	25 µg/mL	> 200 µg/mL	> 200 µg/mL	MIC [6, 20]: 50 µg/mL; MIC [7, 25]: 100 to 200 µg/mL; MIC ([10]; Streptococcus pneumoniae (R6)): 12.5 µg/mL; MIC [12, 26]: 12.5 to 25 µg/mL; MIC [15, 27]: 50 µg/mL; zone of inhibition at 4 µg/disc [18]: 11 mm
CN[C@@H]1[C@H](O)[C@H](NC)[C@H]2O[C@]3(O)[C@H](O[C@@H]2[C@H]1O)O[C@H](C)C[C@@]3(O)CNCC(C)c1ccccc1 (stereo partly shown) [compound 65]	6.3 to 12.5 µg/mL (≈ 13.1 to 26 µM)	–	10 mm	3.1 µg/mL (≈ 6.44 µM)	25 µg/mL (≈ 51.9 µM)	22 mm	13 mm	12.5 µg/mL (≈ 26 µM)	50 µg/mL (≈ 104 µM)	100 µg/mL (≈ 208 µM)	100 µg/mL (≈ 208 µM)	> 200 µg/mL	> 200 µg/mL	≥ 200 µg/mL	≥ 200 µg/mL	12.5 µg/mL (≈ 26 µM)	> 200 µg/mL	12.5 µg/mL (≈ 26 µM)	> 200 µg/mL	> 200 µg/mL	MIC ([1]; Staphylococcus aureus): 12.5 to 25 µg/mL (≈ 26 to 51.9 µM); MIC ([6]; Stenotrophomonas maltophilia, ATCC13637, read-out: MIC S.m.): 12.5 µg/mL (≈ 26 µM); MIC [7, 25]: 50 µg/mL (≈ 104 µM); MIC ([10]; Streptococcus pneumoniae): 12.5 µg/mL (≈ 26 µM); MIC [12, 26]: 12.5 µg/mL (≈ 26 µM); MIC [15, 24]: 12.5 µg/mL (≈ 26 µM); zone of inhibition at 4 µg/disc [18]: 12 mm
CN[C@@H]1[C@H](O)[C@H](NC)[C@H]2O[C@]3(O)[C@H](O[C@@H]2[C@H]1O)O[C@H](C)C[C@@]3(O)CNCCc1cnccn1 [compound 60, 3′-(R)-3′-[((2-(pyrazin-2-yl)ethyl)aminomethyl]dihydrospectinomycintetrahydrobromide]	50 µg/mL	> 200 µg/mL	–	6.3 µg/mL	200 µg/mL	–	–	100 µg/mL	3.1 µg/mL	6.3 µg/mL	6.3 µg/mL	> 200 µg/mL	> 200 µg/mL	> 200 µg/mL	> 200 µg/mL	100 µg/mL	> 200 µg/mL	25 µg/mL	100 to 200 µg/mL	> 200 µg/mL	MIC [6, 20]: 25 µg/mL; MIC [7, 25]: 100 µg/mL; MIC ([10]; Streptococcus pneumoniae (R6)): 25 µg/mL; MIC [12, 21]: 50 µg/mL; MIC [15, 27]: 50 to 100 µg/mL
CN[C@@H]1[C@H](O)[C@H](NC)[C@H]2O[C@]3(O)[C@H](O[C@@H]2[C@H]1O)O[C@H](C)C[C@@]3(O)CNCCc1cccnc1 [compound 59, 3′-(R)-3′-[((2-(pyridin-3-yl)ethyl)aminomethyl]dihydrospectinomycintetrahydrobromide]	–	> 200 µg/mL	–	3.1 µg/mL	100 µg/mL	–	–	50 µg/mL	6.3 µg/mL	6.3 µg/mL	6.3 µg/mL	–	–	> 200 µg/mL	> 200 µg/mL	50 µg/mL	> 200 µg/mL	12.5 µg/mL	100 µg/mL	–	MIC [15, 27]: 12.5 to 25 µg/mL
CN[C@@H]1[C@H](O)[C@H](NC)[C@H]2O[C@]3(O)[C@H](O[C@@H]2[C@H]1O)O[C@H](C)C[C@@]3(O)CNCCc1ccc(C(F)(F)F)cc1 [compound 58, 3′-(R)-3′[(4-trifluoromethyl)phenethylaminomethyl]dihydrospectinomycin Trihydrochloride]	1.6 µg/mL	50 to 100 µg/mL	19 mm	0.4 µg/mL	12.5 µg/mL	26 mm	16 mm	12.5 to 25 µg/mL	3.1 µg/mL	3.1 µg/mL	6.3 µg/mL	200 µg/mL	200 µg/mL	> 200 µg/mL	> 200 µg/mL	12.5 to 25 µg/mL	> 200 µg/mL	3.1 µg/mL	> 200 µg/mL	> 200 µg/mL	MIC [7, 25]: 6.3 to 12.5 µg/mL; MIC ([10]; Streptococcus pneumoniae (R6)): 1.6 to 3.1 µg/mL; MIC [12, 21]: 1.6 to 3.1 µg/mL; MIC [15, 27]: 6.3 µg/mL; zone of inhibition at 4 µg/disc [18]: 19 mm
